The assay concerns the target T1, PHEC27213 (PxLPMO1) (Podosphaera xanthii, UniProt A0A8E4PV92).
T1 construct: gene SHLPMO1; mature protein, signal peptide removed (191 residues), C-terminal 6xHis tag kept, pET30b NdeI/XhoI, E. coli BL21-CodonPlus-RIL; start Met from NdeI site probably before His1
The experiment in a line: MALDI-TOF-MS of reaction products. It is filed as biochemical. The following applies: 1 mM ascorbic acid as reductant, 0.1 M sodium phosphate pH 7.0, 37 °C overnight, 1 μM enzyme; no copper addition told.

T1 sequence (A0A8E4PV92 entry or part of it): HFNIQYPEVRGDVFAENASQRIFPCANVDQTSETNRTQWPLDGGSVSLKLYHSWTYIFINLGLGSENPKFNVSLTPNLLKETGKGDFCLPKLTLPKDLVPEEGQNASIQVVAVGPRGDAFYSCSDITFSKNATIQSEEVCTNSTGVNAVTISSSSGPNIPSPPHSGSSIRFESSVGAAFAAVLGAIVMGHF

`CC(=O)N[C@H]1[C@H](O[C@H]2[C@H](O)[C@@H](NC(C)=O)[C@H](O[C@H]3[C@H](O)[C@@H](NC(C)=O)[C@H](O[C@H]4[C@H](O)[C@@H](NC(C)=O)C(O)O[C@@H]4CO)O[C@@H]3CO)O[C@@H]2CO)O[C@H](CO)[C@@H](O[C@@H]2O[C@H](CO)[C@@H](O[C@@H]3O[C@H](CO)[C@@H](O[C@@H]4O[C@H](CO)[C@@H](O)[C@H](O)[C@H]4NC(C)=O)[C@H](O)[C@H]3NC(C)=O)[C@H](O)[C@H]2NC(C)=O)[C@@H]1O` (stereo partly shown) [DP7, hepta-N-acetylchitoheptaose]: the “MALDI-TOF-MS of reaction products” value was “PHEC27213 was able to release, predominantly, DP5 oligosaccharides”.

The values are drawn from publication PMC8035642, “A haustorial‐expressed lytic polysaccharide monooxygenase from the cucurbit powdery mildew pathogen Podosphaera xanthii contributes to the suppression of chitin‐triggered immunity” (Molecular Plant Pathology, 2021).
